Values quoted from earlier work as cited in patent US5565430A, “Azaaspartic acid analogs as interleukin-1β converting enzyme inhibitors” (Sterling Winthrop Inc., priority 1994, dated 1996).

Columns and labels:
[1] = tested on: patients with active rheumatoid arthritis; details: subcutaneous, after three weeks of daily treatment
[2] = tested on: patients with rheumatoid arthritis; details: subcutaneous, open-label
[3] = tested on: PG-APS model of arthritis in rats
[4] = tested on: chronic myelogenous leukemia cells; details: cells removed from leukemia patients
[5] = tested on: rabbit immune complex colitis; details: animal model of colitis
allergic subjects = details: randomized, double-blind, placebo-controlled

**Q.** Which “antiinflammatory activity in rheumatoid arthritis patients” value [1] does the source give for “Antril: The IL-1 receptor antagonist, Antril (Synergen)” here?
**A.** Its value is “decrease in joint swelling and less disease activity”.

**Q.** With “IL-1ra: IL-1 receptor antagonist, naturally occurring” as the molecule, how does the “efficacy in rheumatoid arthritis trial” value [2] read?
**A.** The value was “shows efficacy”.

**Q.** What about the joint swelling [3] of the same molecule?
**A.** Its joint swelling is “supresses joint swelling”.

**Q.** What about the “colony growth of leukemia cells” value [4] of the same molecule?
**A.** Its value is “inhibit colony growth”.

**Q.** What about the “tissue necrosis and inflammatory cells in colon” value [5] of the same molecule?
**A.** The value was “reduced tissue necrosis and the number of inflammatory cells in the colon”.

B1: Soluble IL-1 receptor: Soluble IL-1 receptor (protein, UniProt P14778 18-336, looked up)
extracellular domain: LEADKCKEREEKIILVSSANEIDVRPCPLNPNEHKGTITWYKDDSKTPVSTEQASRIHQHKEKLWFVPAKVEDSGHYYCVVRNSSYCLRIKISAKFVENEPNLCYNAQAIFKQKLPVAGDGGLVCPYMEFFKNENNELPKLQWYKDCKPLLLDNIHFSGVKDRLIVMNVAEKHRGNYTCHASYTYLGKQYPITRVIEFITLEENKPTRPVIVSPANETMEVDLGSQIQLICNVTGQLSDIAYWKWNGSVIDEDDPVLGEDYYSVENPANKRRSTLITVLNISEIESRFYKHPFTCFAKNTHGIDAAYIQLIYPVTNFQK
modifications: extracellular domain
**Q.** Which “cutaneous late-phase allergic reaction” value (allergic subjects) does the source give for B1 here?
**A.** Its value is “significantly reduces clinically the cutaneous late-phase allergic reaction”.

**Q.** What about the “colony growth of leukemia cells” value [4] of the same molecule?
**A.** The value was “inhibit colony growth”.
